In patent publication US10918623B2, “Methods of treating influenza” (Biotron Limited, priority 2017, dated 2021):

What was measured:
[1] = target: M2 viroporin of influenza A (Influenza A virus, UniProt P06821); conditions: cited from earlier work
[2] = tested on: SHIV-1SCVpu (ion channel sequence of HIV-1 Vpu); assay type: cell-based
SHIV-1PND2 = assay type: cell-based
Influenza A (H3N2) = assay type: cell-based
Influenza A (H1N1) = assay type: cell-based
MDCK cells = conditions: dog
in vitro = conditions: dog
[3] = tested on: PR8 wild-type influenza A virus; assay: microbe, parasite or virus in culture; assay type: cell-based; conditions: PR8, MDCK
influenza = conditions: human, in vivo; cited from earlier work

Chain of M2 viroporin of influenza A (P06821 whole entry, looked up): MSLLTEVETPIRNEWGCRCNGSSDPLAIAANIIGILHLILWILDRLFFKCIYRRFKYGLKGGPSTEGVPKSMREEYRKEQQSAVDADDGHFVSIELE

Cn1cc(-c2cccc3cc(C(=O)NC(=N)N)ccc23)cn1 [BIT225, N-carbamimidoyl-5-(1-methyl-1H-pyrazol-4-yl)-2-naphthamide]
Activity against the M2 viroporin of influenza A [1]: only limited activity
Virus released into the culture supernatant as measured by viral p27 protein [2]: reduced virus released
Virus replication (SHIV-1PND2): does not significantly reduce virus replication
Comments (Influenza A (H3N2)): Active
Comments (Influenza A (H1N1)): Active
Toxic effects (no toxic effects up to) (MDCK cells): > 100 µM
CC50 (in vitro): 32 µM
EC50 [3]: ~10 µM
EC90 [3]: 12 µM

CCOC(=O)C1=C[C@@H](OC(CC)CC)[C@H](NC(C)=O)[C@@H](N)C1 [oseltamivir]
Reduction of time to alleviation of symptoms of influenza (influenza): 16.8 h
